Measurements published in the NIST ThermoML archive (doi:10.1016/j.jct.2018.09.031).
Numbers after ± are expanded uncertainties.

Conditions: 101.33 kPa, Liquid; for kinematic viscosity: Capillary tube (Ostwald / Ubbelohde) method; for mass density: Pycnometric method

OCCO [1,2-ethanediol]
Conditions | kinematic viscosity [m2/s] | mass density [kg/m3]
273.15 K | 5.1e-05 ± 1.5e-06 | 1127.43 ± 6.3
283.15 K | 2.96e-05 ± 9e-07 | 1120.35 ± 6.3
293.15 K | 1.92e-05 ± 5.9e-07 | 1113.25 ± 6.2
303.15 K | 1.28e-05 ± 3.9e-07 | 1106.26 ± 6.2
313.15 K | 8.8e-06 ± 2.7e-07 | 1099.2 ± 6.2
323.15 K | 6.22e-06 ± 1.9e-07 | 1092.07 ± 6.1
333.15 K | 4.6e-06 ± 1.4e-07 | 1084.84 ± 6.1
